This is an account of results in ChEMBL document CHEMBL3039007, “Structure-based identification of OATP1B1/3 inhibitors” (Mol Pharmacol, 2013).

The target in data set [1] is T1, Solute carrier organic anion transporter family member 1B1 (Homo sapiens, UniProt Q9Y6L6).
T1 sequence (Q9Y6L6 whole entry): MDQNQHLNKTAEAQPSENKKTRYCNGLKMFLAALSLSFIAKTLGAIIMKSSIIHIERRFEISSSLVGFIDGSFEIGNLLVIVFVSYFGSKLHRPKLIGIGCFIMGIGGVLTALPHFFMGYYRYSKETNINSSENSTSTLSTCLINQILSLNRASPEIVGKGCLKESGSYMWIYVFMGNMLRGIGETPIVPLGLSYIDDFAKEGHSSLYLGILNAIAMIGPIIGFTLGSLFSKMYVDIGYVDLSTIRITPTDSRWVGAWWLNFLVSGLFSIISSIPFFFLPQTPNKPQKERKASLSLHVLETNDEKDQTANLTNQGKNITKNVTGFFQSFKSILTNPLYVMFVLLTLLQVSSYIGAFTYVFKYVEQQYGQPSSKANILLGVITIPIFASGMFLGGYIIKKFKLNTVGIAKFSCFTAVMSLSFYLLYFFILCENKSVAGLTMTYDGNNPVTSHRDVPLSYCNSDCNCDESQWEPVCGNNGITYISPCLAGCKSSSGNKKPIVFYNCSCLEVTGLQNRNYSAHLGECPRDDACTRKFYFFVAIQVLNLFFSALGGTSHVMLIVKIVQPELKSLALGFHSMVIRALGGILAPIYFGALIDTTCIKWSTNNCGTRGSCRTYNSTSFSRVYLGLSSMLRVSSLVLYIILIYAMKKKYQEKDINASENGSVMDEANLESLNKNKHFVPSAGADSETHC

In data set [2] the target is T1, Solute carrier organic anion transporter family member 1B1. The source holds these as a separate data set.
In data set [3] the target is T2, Solute carrier organic anion transporter family member 1B3 (Homo sapiens, UniProt Q9NPD5).
T2 sequence (Q9NPD5 whole entry): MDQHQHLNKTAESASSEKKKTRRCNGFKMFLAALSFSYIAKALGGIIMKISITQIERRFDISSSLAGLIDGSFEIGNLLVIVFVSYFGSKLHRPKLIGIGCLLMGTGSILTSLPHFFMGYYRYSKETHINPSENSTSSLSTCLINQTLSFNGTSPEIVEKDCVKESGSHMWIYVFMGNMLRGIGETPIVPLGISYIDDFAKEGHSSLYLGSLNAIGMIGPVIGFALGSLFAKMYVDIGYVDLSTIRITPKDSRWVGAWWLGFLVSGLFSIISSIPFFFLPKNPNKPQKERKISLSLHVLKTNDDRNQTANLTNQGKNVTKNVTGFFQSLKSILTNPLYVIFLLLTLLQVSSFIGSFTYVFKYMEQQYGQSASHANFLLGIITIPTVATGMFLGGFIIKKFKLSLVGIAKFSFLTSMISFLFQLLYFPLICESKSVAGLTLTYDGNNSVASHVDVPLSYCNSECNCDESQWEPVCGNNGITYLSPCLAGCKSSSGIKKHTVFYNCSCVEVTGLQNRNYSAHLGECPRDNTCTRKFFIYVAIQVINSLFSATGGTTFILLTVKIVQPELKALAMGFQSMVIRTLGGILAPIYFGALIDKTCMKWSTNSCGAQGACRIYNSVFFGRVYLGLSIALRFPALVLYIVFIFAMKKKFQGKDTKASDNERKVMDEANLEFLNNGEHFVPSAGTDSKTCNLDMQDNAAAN

Data set [4] concerns the target T2, Solute carrier organic anion transporter family member 1B3. This is another data set of the same source.
Data set [5] concerns the target T1, Solute carrier organic anion transporter family member 1B1. The settings on record: chinese hamster, cho, 10 µM.
Data set [6] concerns the target T2, Solute carrier organic anion transporter family member 1B3. The settings on record: chinese hamster, cho, 10 µM.

Regarding `O=c1c(-c2ccc(O)cc2)coc2cc(O)cc(O)c12` [GENISTEIN], the IC50 in data set [1] is 9.12 µM; in data set [3], 3.89 µM. Moreover, the Ki in data set [2] is 5 µM; in data set [4] it was 2.96 µM. Further, the residual activity in data set [5] was 95.56%; in data set [6], 39.06%.
On to `COC(=O)C[C@H]1C2(C)CC34OC5(C)O[C@@]6([C@H](OC(C)=O)C(OC(C)=O)[C@]7(C)C(/C(=C(/O)C(C)C)C(=O)O[C@H]7c7ccoc7)[C@@]6(O5)[C@H](OC(C)=O)[C@@]3(O)C2OC(=O)C(C)C)[C@]14C` (stereo partly specified) [BUSSEIN], for which the IC50 in data set [1] and in data set [3] was 0.692 µM in each case. The Ki in data set [2] was determined as 0.38 µM; in data set [4], 0.53 µM. For the same compound, the residual activity in data set [5] amounted to 7.307%; in data set [6] it was 5.392%.
Regarding `CC(=O)Oc1c2c(c(CC=C(C)C)c3c1C(=O)C1=C[C@@H]4CC5C(C)(C)OC(C/C=C(\C)C(=O)O)(C4=O)[C@@]15O3)OC(C)(CCC=C(C)C)C=C2` (stereo partly specified) [ACETYL ISOGAMBOGIC ACID], the IC50 in data set [1] is 4.07 µM; in data set [3], 5.37 µM. In addition, the Ki in data set [2] came to 2.24 µM; in data set [4] it was 4.17 µM. Moreover, the residual activity was found to be 10.38% in data set [5] and 30.34% in data set [6].
Turning to `CC(C)C1=CC2=CC[C@@H]3[C@](C)(CCC[C@@]3(C)C(=O)O)[C@H]2CC1` [ABIETIC ACID], the figures for the IC50 in data set [1] and in data set [3] were 2.69 µM and 5.25 µM, respectively. Also, the Ki in data set [2] turned out to be 1.47 µM; in data set [4] it was 4.08 µM. Moreover, the residual activity was 7.365% in data set [5] and 33.77% in data set [6].
Take `COC(=O)c1c(OC)cc2c(c1C)Oc1c(Cl)c(O)c(Cl)c(C)c1C(=O)O2` [GANGALEOIDIN]: the IC50 in data set [1] was 0.102 µM; in data set [3], 2.63 µM. The figures for the Ki in data set [2] and in data set [4] were 0.06 µM and 2.02 µM, respectively. Besides, the figures for the residual activity in data set [5] and in data set [6] were 4.093% and 15.01%, respectively.
Regarding `COC(=O)C[C@H]1C2(C)CC34OC5(C)O[C@@]6([C@H](OC)C(OC(=O)C(C)C)[C@]7(C)C(/C(=C(/OC)C(C)C)C(=O)O[C@H]7c7ccoc7)[C@@]6(O5)[C@H](OC)[C@@]3(OC)C2OC(C)=O)[C@]14C` (stereo partly specified) [CHUKRASIN METHYL ETHER], the IC50 in data set [1] is 0.759 µM; in data set [3], 0.724 µM. Further, the Ki in data set [2] was 0.42 µM; in data set [4] it was 0.56 µM. For the same compound, the residual activity in data set [5] was 6.829%; in data set [6], 3.762%.
Regarding `COc1cc(C2Oc3cc([C@H]4Oc5cc(O)cc(O)c5C(=O)[C@@H]4O)ccc3OC2CO)ccc1O` (stereo partly specified) [SILIBININ], the values for the IC50 in data set [1] and in data set [3] were 6.17 µM and 4.27 µM, respectively. Moreover, the Ki was 3.37 µM in data set [2] and 3.27 µM in data set [4]. In addition, the residual activity in data set [5] worked out at 54.77%; in data set [6] it was 46.89%.
Turning to `COC(=O)/C(C)=C\CC12OC(C)(C)C3CC(C=C4C(=O)c5c(OC)c6c(c(CC=C(C)C)c5OC431)OC(C)(CCC=C(C)C)C=C6)C2=O` (stereo unspecified) [DIMETHYL GAMBOGATE], the IC50 in data set [1] is 2.29 µM; in data set [3], 5.13 µM. Also, the results for the Ki in data set [2] and in data set [4] were 1.26 µM and 3.94 µM, respectively. Further, the residual activity was found to be 23.19% in data set [5] and 62.06% in data set [6].
In the case of `C=C1[C@@H]2CC[C@@]3(C)[C@H](c4ccoc4)OC(=O)C[C@]13O[C@H]1CC(=O)C(C)(C)[C@H](C(OC(C)=O)C(=O)OC)[C@]12C` (stereo partly specified) [METHYL 6-ACETOXYANGOLENSATE], the figures for the IC50 in data set [1] and in data set [3] were 1.45 µM and 3.8 µM, respectively. The Ki in data set [2] is 0.8 µM; in data set [4], 2.92 µM. For the same compound, the residual activity in data set [5] stood at 11.95%; in data set [6] it was 34.99%.
As to `CC(=O)O[C@H]1C[C@@H](OC(C)=O)C(C)(C)[C@@H]2C[C@@H](O)[C@@]3(C)[C@H](CC[C@]4(C)[C@@H](c5ccoc5)OC(=O)[C@H]5O[C@@]534)[C@@]12C`, the IC50 was 0.977 µM in data set [1] and 2.95 µM in data set [3]. Also, the values for the inhibition constant (Ki) in data set [2] and in data set [4] were 0.54 µM and 2.27 µM, respectively. In addition, the values for the residual activity in data set [5] and in data set [6] were 14.28% and 9.535%, respectively.
Turning to `O=C1C=CC(=C(c2ccc(O)cc2)c2ccc(O)cc2)C=C1` [AURIN], the IC50 is 2.63 µM in data set [1] and 4.07 µM in data set [3]. For the same compound, the Ki in data set [2] was 1.43 µM; in data set [4], 3.15 µM. In addition, the residual activity in data set [5] is reported as 4.068%; in data set [6] it was 20.35%.
